The target of one assay is T1, Calcitonin receptor (Homo sapiens, UniProt P30988). Also: in other assays of this panel Not Active means under 50% inhibition at 10 µM.
T1 sequence (P30988 whole entry): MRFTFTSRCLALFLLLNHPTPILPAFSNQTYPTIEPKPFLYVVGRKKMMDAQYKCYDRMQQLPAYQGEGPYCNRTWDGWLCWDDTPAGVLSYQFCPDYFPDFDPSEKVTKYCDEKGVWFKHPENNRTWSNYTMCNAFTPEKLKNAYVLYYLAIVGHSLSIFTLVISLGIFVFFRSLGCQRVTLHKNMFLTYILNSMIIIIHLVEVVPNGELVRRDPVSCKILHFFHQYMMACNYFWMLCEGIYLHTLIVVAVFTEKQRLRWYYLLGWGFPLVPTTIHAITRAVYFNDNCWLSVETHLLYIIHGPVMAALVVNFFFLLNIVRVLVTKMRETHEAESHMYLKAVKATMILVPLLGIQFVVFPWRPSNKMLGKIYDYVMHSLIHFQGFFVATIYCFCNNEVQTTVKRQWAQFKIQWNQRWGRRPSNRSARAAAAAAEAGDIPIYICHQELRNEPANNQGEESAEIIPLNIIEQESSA
It is filed as cell membranes, Membrane. The conditions noted are these: t47d.

The next assay addresses T2, Substance-K receptor (Homo sapiens, UniProt P21452).
T2 sequence (P21452 whole entry): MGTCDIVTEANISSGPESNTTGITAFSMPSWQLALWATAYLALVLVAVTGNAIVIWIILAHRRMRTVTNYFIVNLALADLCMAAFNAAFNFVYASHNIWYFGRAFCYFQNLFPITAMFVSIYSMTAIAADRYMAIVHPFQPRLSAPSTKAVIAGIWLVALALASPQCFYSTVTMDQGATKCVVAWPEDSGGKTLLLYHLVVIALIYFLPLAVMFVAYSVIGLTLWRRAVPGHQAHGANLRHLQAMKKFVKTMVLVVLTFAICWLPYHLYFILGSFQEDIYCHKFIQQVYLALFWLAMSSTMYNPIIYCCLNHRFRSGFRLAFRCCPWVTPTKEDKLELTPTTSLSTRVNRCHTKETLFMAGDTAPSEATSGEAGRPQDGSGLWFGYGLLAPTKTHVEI
It is filed as cell membranes, CHO, Membrane.

A short description of assay [1]: DRUGMATRIX: GABAA, Muscimol, Central radioligand binding (ligand: [3H] Muscimol). The assay is classed as cell membranes, Rattus norvegicus, Wistar, Brain, Membrane. The following applies: Not Active = under 50% inhibition at 10 µM.
Assay [2] in a line: DRUGMATRIX: Glutamate, AMPA radioligand binding (ligand: [3H] AMPA). The following applies: Not Active = under 50% inhibition at 10 µM. It is filed as cell membranes, Rattus norvegicus, Wistar, Cerebral cortex, Membrane.
In a further assay the target is Histamine H2 receptor (Homo sapiens, UniProt P25021). The assay is classed as cell membranes, CHO-K1, Membrane. The following applies: cho-k1. Also: in other assays of this panel Not Active means under 50% inhibition at 10 µM.
Sequence of Histamine H2 receptor (P25021 whole entry): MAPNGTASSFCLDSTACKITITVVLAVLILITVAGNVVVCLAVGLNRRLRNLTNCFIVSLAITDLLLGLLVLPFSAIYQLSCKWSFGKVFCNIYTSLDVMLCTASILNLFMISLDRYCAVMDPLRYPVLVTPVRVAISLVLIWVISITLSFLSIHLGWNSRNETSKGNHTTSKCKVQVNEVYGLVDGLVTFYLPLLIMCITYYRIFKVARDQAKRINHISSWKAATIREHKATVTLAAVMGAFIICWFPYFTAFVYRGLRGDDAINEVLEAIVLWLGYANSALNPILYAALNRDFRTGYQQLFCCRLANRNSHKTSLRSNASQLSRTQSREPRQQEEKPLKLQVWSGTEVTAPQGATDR
Assay [3] in a line: DRUGMATRIX: Imidazoline I2, Central radioligand binding (ligand: [3H] Idazoxan). The assay is classed as cell membranes, Rattus norvegicus, Wistar, Cerebral cortex, Membrane. The conditions noted are these: Not Active = under 50% inhibition at 10 µM.
Another assay has as its target Melanocortin receptor 4 (Homo sapiens, UniProt P32245). It is filed as cell membranes, Membrane. The conditions noted are these: hek293. Also: in other assays of this panel Not Active means under 50% inhibition at 10 µM.

Structures are written as SMILES.

Sequence of Melanocortin receptor 4 (P32245 whole entry): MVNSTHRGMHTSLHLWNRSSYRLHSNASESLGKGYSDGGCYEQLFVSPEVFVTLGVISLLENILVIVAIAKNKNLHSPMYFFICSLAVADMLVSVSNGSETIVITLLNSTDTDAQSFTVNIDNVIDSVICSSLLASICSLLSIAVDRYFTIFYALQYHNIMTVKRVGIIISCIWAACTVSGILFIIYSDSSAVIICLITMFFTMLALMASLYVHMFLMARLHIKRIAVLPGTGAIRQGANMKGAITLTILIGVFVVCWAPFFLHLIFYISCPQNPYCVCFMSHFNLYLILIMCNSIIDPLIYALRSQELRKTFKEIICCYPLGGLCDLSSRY

In the case of `c1ccc(Cn2ccnc2)cc1`, the IC50 entry (at Calcitonin receptor; against Substance-K receptor (cho); in assay [1]; in assay [2]; against Histamine H2 receptor; in assay [3]) was “Not Active” throughout. For the same compound, the IC50 entry against Melanocortin receptor 4 is “Not Active”. The Ki entry in assay [1], in assay [2] and in assay [3] was “Not Active” in each case.

Turning to `C[N+](C)(C)CCOP(=O)([O-])OC[C@H](O)CO`, the IC50 result (at Calcitonin receptor; on Substance-K receptor (cho); in assay [1]; in assay [2]; on Histamine H2 receptor; in assay [3]) was “Not Active” throughout. The IC50 entry on Melanocortin receptor 4 is “Not Active”. Besides, the Ki entry in assay [1], in assay [2] and in assay [3] was “Not Active” in each case.

For `NC(=O)CN1CCCC1=O`, the IC50 entry (at Calcitonin receptor; against Substance-K receptor (cho); in assay [1]; in assay [2]; at Histamine H2 receptor; in assay [3]) was “Not Active” in each case. Moreover, the IC50 entry against Melanocortin receptor 4 is “Not Active”. Further, the Ki result in assay [1], in assay [2] and in assay [3] was “Not Active” in each case.

Turning to `OC[C@H]1OC2C3[C@@H](CO)OC(O[C@H]4[C@H](O)[C@@H](O)[C@@H](O[C@H]5[C@H](O)[C@@H](O)[C@@H](O[C@H]6[C@H](O)[C@@H](O)[C@@H](O[C@H]7[C@H](O)[C@@H](O)[C@@H](O[C@H]8[C@H](O)[C@@H](O)[C@@H](O[C@H]9[C@H](O)[C@@H](O)C(OC1[C@H](O)[C@H]2O)O[C@@H]9CO)O[C@@H]8CO)O[C@@H]7CO)O[C@@H]6CO)O[C@@H]5CO)O[C@@H]4CO)[C@H](O)[C@H]3O`, the IC50 result (at Calcitonin receptor; at Substance-K receptor (cho); in assay [1]; in assay [2]; at Histamine H2 receptor; in assay [3]) was “Not Active” in each case. The IC50 entry against Melanocortin receptor 4 is “Not Active”. For the same compound, the Ki result in assay [1], in assay [2] and in assay [3] was “Not Active” each time.

In the case of `CN(CCOc1ccc(C[C@H](Nc2ccccc2C(=O)c2ccccc2)C(=O)O)cc1)c1ccccn1`, the IC50 result is “Not Active” on Calcitonin receptor; 14.5 µM at Substance-K receptor (read-out: IC50); “Not Active” in assay [1]; “Not Active” in assay [2]; “Not Active” at Histamine H2 receptor; “Not Active” in assay [3]. The IC50 result against Melanocortin receptor 4 is recorded as “Not Active”. In addition, the Ki on Substance-K receptor (read-out: Ki) is 4.84 µM; in assay [1] it was “Not Active”; in assay [2], “Not Active”; in assay [3], “Not Active”.

For `O=c1[nH]c2ccccc2c2ccccc12`, the IC50 result (on Calcitonin receptor; against Substance-K receptor (cho); in assay [1]; in assay [2]; against Histamine H2 receptor; in assay [3]) was “Not Active” throughout. Also, the IC50 entry against Melanocortin receptor 4 was “Not Active”. In addition, the Ki result in assay [1], in assay [2] and in assay [3] was “Not Active” throughout.

On to `CO[C@H]1O[C@@H]2O[C@@]3(C)CC[C@H]4[C@H](C)CC[C@@H]([C@H]1C)[C@@]24OO3`, for which the IC50 result (at Calcitonin receptor; on Substance-K receptor (cho); in assay [1]; in assay [2]; on Histamine H2 receptor; in assay [3]) was “Not Active” each time. Moreover, the IC50 result at Melanocortin receptor 4 is listed as “Not Active”. Besides, the Ki entry in assay [1], in assay [2] and in assay [3] was “Not Active” in each case.

For `Nc1ccc(Cc2ccc(N)cc2)cc1`, the IC50 entry (at Calcitonin receptor; at Substance-K receptor (cho); in assay [1]; in assay [2]; on Histamine H2 receptor; in assay [3]) was “Not Active” each time. For the same compound, at Melanocortin receptor 4, the IC50 result is listed as “Not Active”. Moreover, the Ki result in assay [1], in assay [2] and in assay [3] was “Not Active” each time.

In the case of `C=C(Cl)Cl` [1,1-DICHLOROETHENE], the IC50 entry (at Calcitonin receptor; at Substance-K receptor (cho); in assay [1]; in assay [2]; at Histamine H2 receptor; in assay [3]) was “Not Active” throughout. In addition, the IC50 result against Melanocortin receptor 4 is “Not Active”. In addition, the Ki entry in assay [1], in assay [2] and in assay [3] was “Not Active” in each case.

Turning to `CC(=O)Nc1ccc2c(c1)Cc1ccccc1-2` [2-ACETYLAMINOFLUORENE], the IC50 entry (on Calcitonin receptor; against Substance-K receptor (cho); in assay [1]; in assay [2]; at Histamine H2 receptor; in assay [3]) was “Not Active” in each case. Further, the IC50 result against Melanocortin receptor 4 was “Not Active”. For the same compound, the Ki entry in assay [1], in assay [2] and in assay [3] was “Not Active” each time.

`O=C(Nc1ccc(Cl)c(Cl)c1)c1cc(Cl)cc(Cl)c1O` [3,3',4',5-TETRACHLOROSALICYLANILIDE]: the IC50 result (at Calcitonin receptor; at Substance-K receptor (cho); in assay [1]; in assay [2]; against Histamine H2 receptor; in assay [3]) was “Not Active” throughout. Also, on Melanocortin receptor 4, the IC50 entry is listed as “Not Active”. The Ki result in assay [1], in assay [2] and in assay [3] was “Not Active” each time.

For `O=C(O)COC(=O)Cc1ccccc1Nc1c(Cl)cccc1Cl` [ACECLOFENAC], the 50% inhibitory concentration (IC50) entry (on Calcitonin receptor; against Substance-K receptor (cho); in assay [1]; in assay [2]; against Histamine H2 receptor; in assay [3]) was “Not Active” each time. Besides, on Melanocortin receptor 4, the IC50 entry is given as “Not Active”. Further, the Ki result in assay [1], in assay [2] and in assay [3] was “Not Active” each time.

Regarding `CCN1C[C@]2(COC)[C@H](O)C[C@H](OC)[C@@]34[C@@H]5C[C@@]6(O)[C@H](OC(=O)c7ccccc7)[C@@H]5[C@@](OC(C)=O)([C@@H]([C@H](OC)[C@H]23)[C@@H]14)[C@@H](O)[C@@H]6OC` [ACONITINE], the IC50 result (at Calcitonin receptor; against Substance-K receptor (cho); in assay [1]; in assay [2]; at Histamine H2 receptor; in assay [3]) was “Not Active” in each case. Also, on Melanocortin receptor 4, the IC50 entry is “Not Active”. Besides, the Ki entry in assay [1], in assay [2] and in assay [3] was “Not Active” throughout.

In the case of `CCO` [ALCOHOL], the IC50 result (at Calcitonin receptor; at Substance-K receptor (cho); in assay [1]; in assay [2]; against Histamine H2 receptor; in assay [3]) was “Not Active” each time. The IC50 entry on Melanocortin receptor 4 is on record as “Not Active”. For the same compound, the Ki result in assay [1], in assay [2] and in assay [3] was “Not Active” throughout.

As for `OC[C@H]1O[C@@H]2O[C@H]3[C@H](O)[C@@H](O)[C@@H](O[C@H]4[C@H](O)[C@@H](O)[C@@H](O[C@H]5[C@H](O)[C@@H](O)[C@@H](O[C@H]6[C@H](O)[C@@H](O)[C@@H](O[C@H]7[C@H](O)[C@@H](O)[C@@H](O[C@H]1[C@H](O)[C@H]2O)O[C@@H]7CO)O[C@@H]6CO)O[C@@H]5CO)O[C@@H]4CO)O[C@@H]3CO` [ALFADEX], the IC50 entry (on Calcitonin receptor; on Substance-K receptor (cho); in assay [1]; in assay [2]; against Histamine H2 receptor; in assay [3]) was “Not Active” each time. In addition, the IC50 entry on Melanocortin receptor 4 is reported as “Not Active”. Also, the Ki entry in assay [1], in assay [2] and in assay [3] was “Not Active” each time.

With `Oc1ncnc2[nH]ncc12` [ALLOPURINOL], the IC50 entry (on Calcitonin receptor; at Substance-K receptor (cho); in assay [1]; in assay [2]; against Histamine H2 receptor; in assay [3]) was “Not Active” in each case. The 50% inhibitory concentration (IC50) entry on Melanocortin receptor 4 is on record as “Not Active”. The Ki result in assay [1], in assay [2] and in assay [3] was “Not Active” in each case.

`C=CCO` [ALLYL ALCOHOL]: the IC50 result (on Calcitonin receptor; against Substance-K receptor (cho); in assay [1]; in assay [2]; at Histamine H2 receptor; in assay [3]) was “Not Active” throughout. In addition, the IC50 entry at Melanocortin receptor 4 is given as “Not Active”. The Ki entry in assay [1], in assay [2] and in assay [3] was “Not Active” each time.

(Values after ChEMBL document CHEMBL1909046, “DrugMatrix in vitro pharmacology data”.)
